For four molecules, Kd results are on record in US10435439B2, “Peptide with safer secondary structure, peptide library, and production methods for same” (The University of Tokyo, priority 2010, dated 2019).

Structures are written as SMILES. *1 amine or outer side, *2 acyl side, *3 side chain or, on linkers, in order; H or OH if unused. Where a SMILES comes first, the peptide text is derived from it. Bridges are numbered along the chain shown (N, C = ends). [ ]: non-standard residue; d: D form. Nle(4-yne,6-yl) = O=C([C@H](CC#CC[*:3])N[*:1])[*:2] Bounds are passed on as bounds.

In the assay the target is Bcl-2 protein having His tag on the C terminal side (Homo sapiens, UniProt P10415). As to the kind of experiment: Binding ability to Bcl-2 by SPR (Surface Plasmon Resonance), dissociation constant. As to conditions: His-tagged Bcl-2 immobilized on Ni substrate, solid-phase synthesized peptide, KD from binding and dissociation rates. How it is done: Next, a crosslinked peptide having the amino acid sequence as shown in the above table was synthesized by using a Fmoc solid-phase method and its binding ability was evaluated by calculating a dissociation constant (KD) in accordance with an evaluation method using SPR (Surface Plasmon Resonance).
Sequence of Bcl-2 protein having His tag on the C terminal side (P10415 whole entry): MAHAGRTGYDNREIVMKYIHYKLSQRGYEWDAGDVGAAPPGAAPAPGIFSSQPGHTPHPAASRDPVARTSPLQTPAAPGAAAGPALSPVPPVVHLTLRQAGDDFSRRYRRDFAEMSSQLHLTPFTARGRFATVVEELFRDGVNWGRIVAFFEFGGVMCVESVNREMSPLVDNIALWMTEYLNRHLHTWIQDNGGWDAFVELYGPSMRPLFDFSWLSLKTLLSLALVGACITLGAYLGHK
Described specifically, first, a solution containing NiCl2 was applied on a substrate to which Ni could be bound and then Bcl-2 protein having His tag on the C terminal side thereof was applied to immobilize the protein on the substrate. Then, a solution containing a solid-phase synthesized peptide was added successively while appropriately changing the concentration. During addition, a change in refractive index depending on the weight on the substrate was read and bond strength was evaluated based on the binding rate and dissociation rate of the peptide calculated.
As usually defined, the Kd is the free concentration of one partner at which half of the binding sites on the other are occupied at equilibrium, for simple one-to-one binding. Higher therefore signals weaker binding. For `CC[C@H](C)[C@H](NC(=O)[C@H](Cc1c[nH]cn1)NC(=O)[C@H](CCCNC(=N)N)NC(=O)[C@H](CO)NC(=O)[C@H](C)NC(=O)[C@H](CC(=O)O)NC(=O)[C@H](Cc1ccc(O)cc1)NC(=O)[C@H](CO)NC(=O)[C@H](CC(=O)O)NC(=O)[C@H](C)NC(=O)[C@H](CC(C)C)NC(=O)[C@@H]1CSCC#CC[C@H](NC(=O)[C@@H](NC(=O)[C@@H](NC(=O)[C@H](Cc2ccccc2)NC(C)=O)[C@@H](C)CC)[C@@H](C)CC)C(=O)N[C@@H](CCCNC(=N)N)C(=O)N[C@@H](Cc2ccccc2)C(=O)N[C@@H](CO)C(=O)N1)C(=O)N[C@@H](Cc1ccccc1)C(N)=O` [A-5] (Ac-FII[Nle(4-yne,6-yl)]RFSCLADSYDASRHIF-NH2; thioether 4-8), the Kd stood at 0.17 nM.
`CC(=O)N[C@@H](Cc1ccccc1)C(=O)N[C@@H](Cc1ccccc1)C(=O)N[C@@H](CC(N)=O)C(=O)N[C@@H](CCCNC(=N)N)C(=O)N[C@@H](Cc1c[nH]cn1)C(=O)N[C@@H](CC(N)=O)C(=O)N[C@@H](CC(N)=O)C(=O)N[C@@H](C)C(=O)N[C@@H](Cc1ccc(O)cc1)C(=O)N[C@@H](Cc1ccc(O)cc1)C(=O)N[C@H](C(=O)N[C@H]1CC#CCSC[C@@H](C(=O)N[C@@H](CC(C)C)C(=O)NCC(=O)N[C@@H](CCCNC(=N)N)C(=O)N[C@@H](CC(C)C)C(=O)N[C@@H](Cc2ccc(O)cc2)C(=O)N[C@@H](CCCNC(=N)N)C(=O)N[C@@H](CC(C)C)C(=O)N[C@@H](CC(C)C)C(N)=O)NC(=O)[C@H](C)NC(=O)[C@H](Cc2ccc(O)cc2)NC(=O)CNC1=O)[C@@H](C)O` [A-4] (Ac-FFNRHNNAYYT[Nle(4-yne,6-yl)]GYACLGRLYRLL-NH2; thioether 12-16) showed a Kd of over 0.1 nM.
Turning to `CC[C@H](C)[C@@H]1NC(=O)[C@H]([C@@H](C)O)NC(=O)[C@@H](NC(=O)[C@H](Cc2c[nH]cn2)NC(=O)[C@@H]2CCCN2C(=O)[C@H](Cc2ccccc2)NC(C)=O)CC#CCSC[C@@H](C(=O)N[C@@H](CCCNC(=N)N)C(=O)N[C@@H](C)C(=O)N[C@@H](CC(=O)O)C(=O)N[C@@H](CO)C(=O)N[C@@H](Cc2ccc(O)cc2)C(=O)N[C@@H](CC(=O)O)C(=O)N[C@@H](CO)C(=O)N[C@@H](Cc2ccc(O)cc2)C(=O)N[C@H](C(=O)N[C@@H](CCCNC(=N)N)C(=O)N[C@@H](CC(C)C)C(=O)N[C@@H](C)C(=O)N[C@@H](C)C(=O)N[C@H](C(=O)N[C@@H](Cc2ccccc2)C(=O)N[C@@H](CC(C)C)C(N)=O)[C@@H](C)O)C(C)C)NC(=O)[C@H](C)NC1=O` [A-1] (Ac-FPH[Nle(4-yne,6-yl)]TIACRADSYDSYVRLAATFL-NH2; thioether 4-8), binding was characterised by a dissociation constant (Kd) of 0.37 nM.
To `CC(=O)N[C@@H](Cc1ccccc1)C(=O)N[C@@H](CC(C)C)C(=O)N[C@@H](CC(N)=O)C(=O)N[C@@H](CCCNC(=N)N)C(=O)N[C@@H](Cc1c[nH]cn1)C(=O)N[C@@H](CC(N)=O)C(=O)N[C@@H](CC(N)=O)C(=O)N[C@@H](C)C(=O)N[C@@H](Cc1ccc(O)cc1)C(=O)N[C@@H](Cc1ccc(O)cc1)C(=O)N[C@H](C(=O)N[C@H]1CC#CCSC[C@@H](C(=O)N[C@@H](CC(C)C)C(=O)NCC(=O)N[C@@H](CCCNC(=N)N)C(=O)N[C@@H](CC(C)C)C(=O)N[C@@H](Cc2ccc(O)cc2)C(=O)N[C@@H](CCCNC(=N)N)C(=O)N[C@@H](CC(C)C)C(=O)N[C@@H](CC(C)C)C(N)=O)NC(=O)[C@H](C)NC(=O)[C@H](Cc2ccc(O)cc2)NC(=O)CNC1=O)[C@@H](C)O` [A-3] (Ac-FLNRHNNAYYT[Nle(4-yne,6-yl)]GYACLGRLYRLL-NH2; thioether 12-16) belongs over 0.1 nM.
